Consider 14 compounds from patent US8372854B2, “Pyrrolo[2,3-D]pyrimidine compounds” (Pfizer Inc., priority 2009, dated 2013).

What all share (type): biochemical
Assay [1] deals with T1, JAK1 (Homo sapiens, UniProt P23458).
T1 construct: purchased Invitrogen Corporation, Madison, Wis; PV4775
In words: JAK enzymatic assay (peptide mobility shift), JAK1. Conditions: recombinant JAK1 20 nM, ATP 40 μM, 1 μM IRS-1 peptide, 240 minutes. From the text:
(§1) Recombinant JAK1 (Catalog Number PV4775), JAK2 (Catalog Number PV4210) and JAK3 (Catalog Number PV3855) were purchased from (Invitrogen Corporation, Madison, Wis.). Tyk2 (His-Tyk2 (888-1182, C936S, C1142S)) used in this study was expressed and purified at Pfizer Laboratories. Adenosine 5′-triphosphate (ATP) was obtained from (Sigma Chemical Company, St. Louis, Mo.). The JAKtide peptide (peptide sequence, FITC-[…]) used for the JAK2 and JAK3 assays and the IRS-1 peptide (peptide sequence, 5-FAM-[…]) used for the JAK1 and Tyk2 assays were purchased from (American Peptide Company, Sunnyvale, Calif.). Coating Reagent 3 was purchased from (Caliper Life Sciences, Hopkinton, Mass.).
(§2) A peptide mobility shift assay was used to quantify the phosphorylation of the JAKtide (JAK2 and JAK3) or the IRS-1 peptide ([…] and Tyk2). Reactions were carried out in a 384-well plate (Matrical MP-101) in a 10 μL total volume. Reaction mixtures contained 20 mM HEPES, pH 7.4, 10 mM magnesium chloride, 0.01% bovine serum albumin (BSA), 0.0005% Tween-20, ATP (4 μM for JAK2 and JAK3, 40 μM for JAK1 and 7 μM for Tyk2)), 2% DMSO and 1 μM peptide substrate (JAKtide for JAK2 and JAK3 and IRS-1 peptide for JAK1 and Tyk2). Compounds were diluted serially in 100% dimethyl sulfoxide and tested in an 11 point dose response in duplicate or quadruplicate (200 nl of compound/DMSO was added per 10 μL reaction). The reactions were initiated by the addition of enzyme to the final concentration of 2 nM JAK2, 1 nM JAK3, 12 nM Tyk2 or 20 nM JAK1. The assay was run for 240 minutes for JAK1, 150 minutes for JAK2, 90 minutes for JAK3 and 70 minutes for Tyk2. The assays were stopped at the specified times with 20 uL of 140 mM HEPES, 22.5 mM EDTA and 0.15% Coating Reagent 3. The plates were placed on a LabChip 3000 (LC3000) instrument from (Caliper Life Sciences) to measure the formation of phosphorylated peptide. Data was analyzed using Hits Well Analyzer Software from (Caliper Life Sciences) to obtain the amount of product formed.
(§3) Data was then imported into an internal application where each data point is expressed as % inhibition based on uninhibited and no enzyme controls. Dose-response data is then fit using a 4 parameter logistic equation (Equation 1) to determine an IC50.
(§4) Where max is the fitted uninhibited value, min is the fitted complete inhibition value, and s is the slope factor.

Assay [2] deals with T2, JAK2 (Homo sapiens, UniProt O60674).
T2 construct: purchased Invitrogen Corporation, Madison, Wis; PV4210
In words: JAK enzymatic assay (peptide mobility shift), JAK2. Conditions: recombinant JAK2 2 nM, ATP 4 μM, 1 μM JAKtide peptide, 150 minutes.
Source text: as §1, §2, §3, §4

In assay [3] the target is T3, JAK3 (Homo sapiens, UniProt P52333).
T3 construct: purchased Invitrogen Corporation, Madison, Wis; PV3855
T3 sequence (P52333 1-1124): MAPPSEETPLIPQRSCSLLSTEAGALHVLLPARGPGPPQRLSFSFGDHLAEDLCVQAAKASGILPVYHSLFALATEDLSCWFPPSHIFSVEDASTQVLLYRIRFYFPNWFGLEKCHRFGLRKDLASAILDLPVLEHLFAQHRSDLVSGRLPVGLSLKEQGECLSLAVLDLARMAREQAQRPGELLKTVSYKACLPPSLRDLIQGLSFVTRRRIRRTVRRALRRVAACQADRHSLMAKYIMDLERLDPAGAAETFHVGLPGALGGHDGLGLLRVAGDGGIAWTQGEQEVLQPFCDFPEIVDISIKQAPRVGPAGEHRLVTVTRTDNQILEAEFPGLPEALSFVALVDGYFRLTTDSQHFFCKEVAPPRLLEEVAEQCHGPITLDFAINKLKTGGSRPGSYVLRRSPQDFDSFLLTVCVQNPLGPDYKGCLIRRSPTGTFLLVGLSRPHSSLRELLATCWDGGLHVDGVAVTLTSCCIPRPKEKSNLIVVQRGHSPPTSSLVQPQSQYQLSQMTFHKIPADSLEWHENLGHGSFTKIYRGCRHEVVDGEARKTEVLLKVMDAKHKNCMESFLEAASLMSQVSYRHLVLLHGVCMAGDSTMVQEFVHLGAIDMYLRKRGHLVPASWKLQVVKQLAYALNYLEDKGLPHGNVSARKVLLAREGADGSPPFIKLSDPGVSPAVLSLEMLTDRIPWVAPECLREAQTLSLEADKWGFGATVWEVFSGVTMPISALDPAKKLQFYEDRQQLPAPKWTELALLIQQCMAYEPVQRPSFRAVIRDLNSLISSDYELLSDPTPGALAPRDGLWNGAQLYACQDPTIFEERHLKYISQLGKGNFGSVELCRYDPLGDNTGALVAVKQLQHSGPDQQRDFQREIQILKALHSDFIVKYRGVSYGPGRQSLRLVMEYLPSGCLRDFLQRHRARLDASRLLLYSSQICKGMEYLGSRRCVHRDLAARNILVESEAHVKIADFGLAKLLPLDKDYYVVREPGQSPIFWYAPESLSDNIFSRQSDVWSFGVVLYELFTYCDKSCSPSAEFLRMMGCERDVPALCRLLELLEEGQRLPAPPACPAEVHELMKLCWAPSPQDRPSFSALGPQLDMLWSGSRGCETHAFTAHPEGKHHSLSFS
In words: JAK enzymatic assay (peptide mobility shift), JAK3. The note with it: recombinant JAK3 1 nM, ATP 4 μM, 1 μM JAKtide peptide, 90 minutes.
Source text: Recombinant JAK1 (Catalog Number PV4775), JAK2 (Catalog Number PV4210) and JAK3 (Catalog Number PV3855) were purchased from (Invitrogen Corporation, Madison, Wis.). Tyk2 (His-Tyk2 (888-1182, C936S, C1142S)) used in this study was expressed and purified at Pfizer Laboratories. Adenosine 5′-triphosphate (ATP) was obtained from (Sigma Chemical Company, St. Louis, Mo.). […] Coating Reagent 3 was purchased from (Caliper Life Sciences, Hopkinton, Mass.).
as §2, §3, §4

T2 sequence (O60674 whole entry): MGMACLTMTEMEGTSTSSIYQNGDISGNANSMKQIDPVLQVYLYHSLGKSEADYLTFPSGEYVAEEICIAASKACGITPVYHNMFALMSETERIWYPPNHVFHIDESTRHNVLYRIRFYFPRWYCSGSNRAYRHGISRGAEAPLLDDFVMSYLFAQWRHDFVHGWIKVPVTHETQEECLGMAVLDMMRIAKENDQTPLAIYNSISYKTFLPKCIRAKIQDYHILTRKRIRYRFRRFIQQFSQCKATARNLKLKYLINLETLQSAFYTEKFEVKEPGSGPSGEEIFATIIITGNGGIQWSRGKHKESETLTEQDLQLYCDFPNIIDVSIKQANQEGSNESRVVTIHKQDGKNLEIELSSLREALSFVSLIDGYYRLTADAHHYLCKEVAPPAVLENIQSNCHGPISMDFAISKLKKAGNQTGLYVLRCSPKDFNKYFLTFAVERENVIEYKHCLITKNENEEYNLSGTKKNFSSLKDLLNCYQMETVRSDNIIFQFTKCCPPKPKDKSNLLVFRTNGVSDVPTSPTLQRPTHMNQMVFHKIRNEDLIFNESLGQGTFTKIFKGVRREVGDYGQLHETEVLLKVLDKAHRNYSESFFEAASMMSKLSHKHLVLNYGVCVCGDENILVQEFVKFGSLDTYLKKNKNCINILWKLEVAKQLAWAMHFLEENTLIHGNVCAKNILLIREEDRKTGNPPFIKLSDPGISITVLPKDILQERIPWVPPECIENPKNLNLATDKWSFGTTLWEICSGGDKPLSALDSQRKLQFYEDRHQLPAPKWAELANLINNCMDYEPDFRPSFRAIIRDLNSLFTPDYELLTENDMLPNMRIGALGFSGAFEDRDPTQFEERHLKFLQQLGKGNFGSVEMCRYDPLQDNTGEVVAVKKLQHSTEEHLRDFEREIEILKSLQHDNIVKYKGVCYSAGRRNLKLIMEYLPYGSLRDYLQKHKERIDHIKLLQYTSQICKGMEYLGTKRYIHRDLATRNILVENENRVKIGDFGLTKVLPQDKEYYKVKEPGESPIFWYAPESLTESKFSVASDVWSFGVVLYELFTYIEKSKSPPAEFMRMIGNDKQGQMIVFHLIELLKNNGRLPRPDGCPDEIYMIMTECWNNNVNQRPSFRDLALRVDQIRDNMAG
T1 sequence (P23458 whole entry): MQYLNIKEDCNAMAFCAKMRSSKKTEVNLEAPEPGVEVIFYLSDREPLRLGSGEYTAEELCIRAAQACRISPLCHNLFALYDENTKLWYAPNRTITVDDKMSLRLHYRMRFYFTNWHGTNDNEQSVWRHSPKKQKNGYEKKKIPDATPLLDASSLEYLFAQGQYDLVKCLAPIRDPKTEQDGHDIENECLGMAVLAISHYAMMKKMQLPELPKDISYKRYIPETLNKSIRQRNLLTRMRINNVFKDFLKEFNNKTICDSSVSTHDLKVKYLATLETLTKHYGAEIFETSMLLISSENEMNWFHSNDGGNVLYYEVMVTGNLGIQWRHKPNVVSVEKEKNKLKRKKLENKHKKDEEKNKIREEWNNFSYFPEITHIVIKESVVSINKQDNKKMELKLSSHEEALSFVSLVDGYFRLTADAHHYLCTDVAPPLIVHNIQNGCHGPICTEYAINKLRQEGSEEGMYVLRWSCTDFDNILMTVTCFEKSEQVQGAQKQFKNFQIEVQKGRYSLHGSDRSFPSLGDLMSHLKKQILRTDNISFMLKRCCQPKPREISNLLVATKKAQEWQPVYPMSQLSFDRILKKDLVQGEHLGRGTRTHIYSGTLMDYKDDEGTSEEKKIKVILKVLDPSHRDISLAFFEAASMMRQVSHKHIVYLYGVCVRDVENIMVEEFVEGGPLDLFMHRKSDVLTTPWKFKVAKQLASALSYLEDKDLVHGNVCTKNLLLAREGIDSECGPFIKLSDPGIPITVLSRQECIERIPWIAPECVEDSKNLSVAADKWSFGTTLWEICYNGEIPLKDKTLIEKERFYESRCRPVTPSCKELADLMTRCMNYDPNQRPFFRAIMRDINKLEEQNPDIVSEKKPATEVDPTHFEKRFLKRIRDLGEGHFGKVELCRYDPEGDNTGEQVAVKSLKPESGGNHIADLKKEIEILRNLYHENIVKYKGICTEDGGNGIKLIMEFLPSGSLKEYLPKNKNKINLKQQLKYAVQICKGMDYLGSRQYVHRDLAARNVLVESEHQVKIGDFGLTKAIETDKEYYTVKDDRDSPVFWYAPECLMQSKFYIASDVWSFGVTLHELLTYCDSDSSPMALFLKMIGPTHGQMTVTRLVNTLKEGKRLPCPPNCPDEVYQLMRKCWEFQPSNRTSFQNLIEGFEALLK

Consider `CN(c1ncnc2[nH]ccc12)[C@H]1CC[C@H](CS(=O)(=O)NC2CC2)CC1` [Example 1, N-cyclopropyl-1-{trans-4-[methyl(7H-pyrrolo[2,3-d]pyrimidin-4-yl)amino]cyclohexyl}methanesulfonamide], for which the IC50 in assay [1] stood at 10 nM; in assay [2], 45.4 nM; in assay [3], 224 nM.

With `CN(c1ncnc2[nH]ccc12)[C@H]1CC[C@H](CS(=O)(=O)NCCc2ccc(S(N)(=O)=O)cc2)CC1` [Example 2, 4-(2-{[({trans-4-[methyl(7H-pyrrolo[2,3-d]pyrimidin-4-yl)amino]cyclohexyl}methyl)sulfonyl]amino}ethyl)benzene-sulfonamide], the IC50 turned out to be 1.82 nM in assay [1], 14.9 nM in assay [2] and 166 nM in assay [3].

`CN(c1ncnc2[nH]ccc12)[C@H]1CC[C@H](CS(=O)(=O)NCCc2ccc(O)cc2)CC1` [Example 3, N-[2-(4-hydroxyphenyl)-ethyl]-1-{trans-4-[methyl-(7H-pyrrolo[2,3-d]pyrimidin-4-yl)amino]cyclohexyl}-methanesulfonamide]: the IC50 in assay [1] worked out at 2.25 nM; in assay [2] it was 28.6 nM; in assay [3], 257 nM.

Regarding `Cc1ccc(CCNS(=O)(=O)C[C@H]2CC[C@H](N(C)c3ncnc4[nH]ccc34)CC2)c(C)c1` [Example 4, N-[2-(2,4-dimethylphenyl)-ethyl]-1-{trans-4-[methyl-(7H-pyrrolo[2,3-d]pyrimidin-4-yl)amino]cyclohexyl}-methanesulfonamide], the IC50 in assay [1] was 3.01 nM; in assay [2], 9.17 nM; in assay [3], 139 nM.

For `COc1ccccc1CCNS(=O)(=O)C[C@H]1CC[C@H](N(C)c2ncnc3[nH]ccc23)CC1` [Example 5, N-[2-(2-methoxyphenyl)-ethyl]-1-{trans-4-[methyl-(7H-pyrrolo[2,3-d]pyrimidin-4-yl)amino]cyclohexyl}-methanesulfonamide], the concentration for half-maximal inhibition (IC50) was 3.78 nM in assay [1], 17 nM in assay [2] and 188 nM in assay [3].

As for `CN(c1ncnc2[nH]ccc12)[C@H]1CC[C@H](CS(=O)(=O)NCC(F)(F)c2ccccc2)CC1` [Example 6, N-(2,2-difluoro-2-phenyl-ethyl)-1-{trans-4-[methyl-(7H-pyrrolo[2,3-d]pyrimidin-4-yl)amino]cyclohexyl}-methanesulfonamide], the values for the IC50 in assay [1], in assay [2] and in assay [3] were 4.22 nM, 11.8 nM and 101 nM, respectively.

Take `Cc1ccc(CCNS(=O)(=O)C[C@H]2CC[C@H](N(C)c3ncnc4[nH]ccc34)CC2)cc1` [Example 7, N-[2-(4-methylphenyl)-ethyl]-1-{trans-4-[methyl-(7H-pyrrolo[2,3-d]pyrimidin-4-yl)amino]cyclohexyl}-methanesulfonamide]: the IC50 in assay [1] came out at 4.44 nM; in assay [2], 11.3 nM; in assay [3] it was 137 nM.

As to `CN(c1ncnc2[nH]ccc12)[C@H]1CC[C@H](CS(=O)(=O)NCC(C)(F)c2ccc(F)cc2)CC1` (stereo partly drawn) [Example 8, N-[2-fluoro-2-(4-fluoro-phenyl)propyl]-1-{trans-4-[methyl(7H-pyrrolo[2,3-d]-pyrimidin-4-yl)amino]-cyclohexyl}-methanesulfonamide], the values for the IC50 in assay [1], in assay [2] and in assay [3] were 6.05 nM, 32.3 nM and 403 nM, respectively.

Regarding `CN(c1ncnc2[nH]ccc12)[C@H]1CC[C@H](CS(=O)(=O)NCC(C)(F)c2cccc(F)c2)CC1` (stereo partly drawn) [Example 9, N-[2-fluoro-2-(3-fluoro-phenyl)propyl]-1-{trans-4-[methyl(7H-pyrrolo[2,3-d]-pyrimidin-4-yl)amino]-cyclohexyl}-methanesulfonamide], the IC50 in assay [1] came to 10.5 nM; in assay [2] it was 39.7 nM; in assay [3] it was 531 nM.

Take `COc1cccc(CCNS(=O)(=O)C[C@H]2CC[C@H](N(C)c3ncnc4[nH]ccc34)CC2)c1` [Example 10, N-[2-(3-methoxyphenyl)-ethyl]-1-{trans-4-[methyl-(7H-pyrrolo[2,3-d]pyrimidin-4-yl)amino]cyclohexyl}-methanesulfonamide]: the IC50 in assay [1] worked out at 11 nM; in assay [2], 34.1 nM; in assay [3], 301 nM.

On to `CN(c1ncnc2[nH]ccc12)[C@H]1CC[C@H](CS(=O)(=O)NCC(F)c2ccc(F)cc2)CC1` (stereo partly drawn) [Example 11, N-[2-fluoro-2-(4-fluoro-phenyl)ethyl]-1-{trans-4-[methyl(7H-pyrrolo[2,3-d]-pyrimidin-4-yl)amino]-cyclohexyl}-methanesulfonamide], for which the figures for the IC50 in assay [1], in assay [2] and in assay [3] were 13.5 nM, 61.9 nM and 424 nM, respectively.

As for `CN(c1ncnc2[nH]ccc12)[C@H]1CC[C@H](CS(=O)(=O)NCCc2ccc(C(F)(F)F)cc2)CC1` [Example 12, 1-{trans-4-[methyl(7H-pyrrolo[2,3-d]pyrimidin-4-yl)amino]cyclohexyl}-N-{2-[4-(trifluoromethyl)-phenyl]ethyl}-methanesulfonamide], the IC50 came out at 16.5 nM in assay [1], 55.5 nM in assay [2] and 511 nM in assay [3].

Regarding `CN(c1ncnc2[nH]ccc12)[C@H]1CC[C@H](CS(=O)(=O)NCCc2ccc(C(F)(F)F)cc2F)CC1` [Example 13, N-{2-[2-fluoro-4-(trifluoro-methyl)phenyl]ethyl}-1-{trans-4-[methyl(7H-pyrrolo[2,3-d]pyrimidin-4-yl)amino]cyclohexyl}-methanesulfonamide], the IC50 in assay [1] worked out at 17.4 nM; in assay [2], 55.3 nM.

`CN(c1ncnc2[nH]ccc12)[C@H]1CC[C@H](CS(=O)(=O)NCCc2ccccc2F)CC1` [Example 14, N-[2-(2-fluorophenyl)ethyl]-1-{trans-4-[methyl(7H-pyrrolo[2,3-d]pyrimidin-4-yl)amino]cyclohexyl}methanesulfonamide]: the IC50 is 4.65 nM in assay [1], 20.5 nM in assay [2] and 148 nM in assay [3].
